Experimental data as given in patent USRE38970E1, “Indolyl or indolinyl derivatives and medicinal use thereof as ACAT or lipid peroxidation inhibitors” (Kyoto Pharmaceutical Industries, Ltd., priority 1995, dated 2006).
In brackets after ≈: the same amount, converted by molar mass.

Assays:
[1] = tested on: plasma lipoperoxidation; test: In vitro plasma lipoperoxidation inhibitory activity (malondialdehyde production); format: biochemical, Wister rats; settings: rat heparinized plasma, test compound final concentration 10^-5M, copper sulfate, malondialdehyde production vs control
Method: Under ether anesthesia, blood was taken from male Wister rats weighing 160-190 g that had been fasted for 16 hours, and heparinized plasma was separated by conventional method. DMSO (10 μl) or a test compound (final concentration 10^−5M) dissolved in DMSO (test compound solution 10 μl) was added to plasma (1.0 ml), and the mixture was incubated at 37° C. for 5 minutes.

[2] = tested on: serum total cholesterol; test: Serum total cholesterol reducing effect in rats on high cholesterol feed; format: in vivo; settings: male Wister rats, vs control
Method: Mile Wister rats weighing 180-200 g were bred under free access to a high cholesterol feed [added with cholesterol (1%), cholic acid (0.5%) and coconut oil (10%), Clea Japan, Inc.] for 3 days, during which period a test compound (3 mg/kg and 10 mg/kg) suspended in 5% gum arabic solution was forcibly administered once a day orally for 3 days. Only 5% gum arabic solution was administered to control animals. After final administration, the test animals were fasted and blood was taken 5 hours later. The serum total cholesterol level was determined using a commercially available assay lit (cholesterol-CII-Test Wako, Wako Pure Chemical Industries, Ltd.).

[3] = tested on: ACAT; test: ACAT inhibitory activity (cholesteryl oleate production by small intestine mucosal microsomes); format: biochemical, Japanese white rabbits; settings: rabbit small intestine mucosal microsomes, [1-14C] oleoyl CoA, 37° C. 7 minutes, vs control; test concentration not given
[4] = Oral administration, plasma concentration in Wister rats; settings: 30 mg/kg orally, fasted male Wister rats, sampled 0.5-6 hours
Method: (§1) At 0.5, 1, 2, 4 and 6 hours after administration, blood was taken and heparinized plasma was separated by conventional method.

[5] = Oral administration, plasma concentration in SD rats; settings: 30 mg/kg orally, fasted male SD rats, sampled 0.5-6 hours
Method: as §1

[6] = tested on: plasma lipoperoxidation; test: Ex vivo plasma lipoperoxidation inhibitory activity after oral administration; format: in vivo; settings: male Wister rats, plasma taken 1 hour after administration
Method: Under ether anesthesia, blood was taken from male Wister rats weighing 160-190 g that had been fasted for 16 hours, and heparinized plasma was separated by conventional method.
Only 5% gum arabic solution was administered to control animals. At 1 hour after administration, blood was taken under ether anesthesia and heparinized plasma was separated by conventional method. The plasma (1.0 ml) was processed in the same manner as in Experimental Example 3 and the amount of produced malondialdehyde was determined.

[7] = Solubility in buffer pH 6.8; settings: for solubility at 1 h: buffer pH 6.8, 25 °C, pH 6.8, aqueous buffer, thermodynamic from solid; for Solubility: buffer pH 6.8, shaken 1 hr at 25° C., HPLC
Method: A pulverized test compound (10 mg) was added to buffer (1 ml, pH 6.8), and the mixture was shaken for 1 br at 25° C.

[8] = 3 mg/kg/day orally once a day for 3 days
[9] = 10 mg/kg/day orally once a day for 3 days

SMILES	Inhibition (%) of plasma lipoperoxidation [1] [%]	Reduction (%) of serum total cholesterol [2, 8] [%]	Reduction (%) of serum total cholesterol [2, 9] [%]	ACAT inhibition (%) [3] [%]	further results
CCCCCCCCN1CCc2c(C)c(CO)c(C)c(NC(=O)C(C)(C)C)c21 [Example 1, N-(1-octyl-5-hydroxymethyl-4,6-dimethylindolin-7-yl)-2,2-dimethylpropanamide]	51.7	52.8	57.1	99.2	
CCCCCCCCN1CCc2c(C)c(CC(=O)OCC)c(C)c(NC(=O)C(C)(C)C)c21 [Example 3, N-(1-octyl-5-ethoxycarbonylmethyl-4,6-dimethylindolin-7-yl)-2,2-dimethylpropanamide]	49.2	54.2	61.2	92.5	
CCCCCCCCN1CCc2c(C)c(CC(=O)O)c(C)c(NC(=O)C(C)(C)C)c21 [Example 4, N-(1-octyl-5-carboxymethyl-4,6-dimethylindolin-7-yl)-2,2-dimethylpropanamide]	51.2	58.8	57.5		Highest concentration in plasma [4]: 1.4 µg/mL; Highest concentration in plasma [5]: 13.6 µg/mL; Inhibition (%) of plasma lipoperoxidation ([6]; 10 mg/kg orally): 39.0%; solubility at 1 h [7]: 6900 µg/mL (≈ 16.6 mM)
CCCCCCCCN1CC(CCC(=O)O)c2c(C)cc(C)c(NC(=O)C(C)(C)C)c21 (stereo not shown) [Example 11, N-[(1-octyl-3-(2-carboxyethyl)-4,6-dimethylindolin-7-yl)]-2,2-dimethylpropanamide]	44.5				
CCCCCCN1CCc2c(C)c(CC(=O)O)c(C)c(NC(=O)C(C)(C)C)c21 [Example 18]					Solubility [7]: 7300 µg/mL (≈ 18.8 mM)
CCCCCCCCCN1CCc2c(C)c(CC(=O)O)c(C)c(NC(=O)C(C)(C)C)c21 [Example 36]					Highest concentration in plasma [4]: 2.2 µg/mL; Highest concentration in plasma [5]: 12.2 µg/mL; Solubility [7]: 4200 µg/mL (≈ 9.75 mM)
CCCCCCCCN1CCc2cc(CC(=O)O)c(C)c(NC(=O)C(C)(C)C)c21 [Example 71]	48.1	26.5	52.3		Solubility [7]: 100 µg/mL (≈ 0.248 mM)
CCCCCCCCN1CCc2cc(CO)c(C)c(NC(=O)C(C)(C)C)c21 [Example 76]	51.7			94.7	
CCCCCCCCN1CCc2cc(CN(C)C)c(C)c(NC(=O)C(C)(C)C)c21 [Example 81]	47.1	31.7	53.8		
CCCCCCCCN1CCc2cc(CC(=O)O)c(C)c(NC(=O)C(C)(C)C)c21 [Example 116]	45.5	26.5	50.9	92.0	
CCCCCCCCN1CCc2c(C)c(CCC(=O)O)c(C)c(NC(=O)C(C)(C)C)c21 [Example 120, N-(1-octyl-5-carboxyethyl-4,6-dimethylindolin-7-yl)-2,2-dimethylpropanamide]		45.8	44.6	92.3	
CCCCSCCCCCCN1CCc2c(C)c(CC(=O)O)c(C)c(NC(=O)C(C)(C)C)c21 [Example 121]	41.6	87.8	48.1	92.5	
CCCCSCCCN1CCc2c(C)c(CC(=O)O)c(C)c(NC(=O)C(C)(C)C)c21 [Example 122]		88.2	50.0	92.0	
CCCCCCCCN1CCCc2c(C)c(CC(=O)O)c(C)c(NC(=O)C(C)(C)C)c21 [Example 125, N-(1-octyl-6-carboxymethyl-5,7-dimethyl-1,2,3,4-tetrahydroquinolin-8-yl)-2,2-dimethylpropanamide]	48.0	30.2	47.9	93.0	
CCCCCCCCN1CCc2cc(C(=O)O)c(C)c(NC(=O)C(C)(C)C)c21 [Example 155, N-(1-octyl-5carboxy-6-methylindolin-7-yl)-2,2-dimethylpropanamide]	47.7	55.2	58.5		
CCCCCCCCN1CCc2c(C)c(C(=O)O)c(C)c(NC(=O)C(C)(C)C)c21 [Example 159]	48.3	53.8	57.5		
CC(C)(Sc1cc(C(C)(C)C)c(O)c(C(C)(C)C)c1)Sc1cc(C(C)(C)C)c(O)c(C(C)(C)C)c1 [Probucol, 4,4-isopropylidenedithiobis(2,6-di-t-butylphenol), reference compound]					Inhibition (%) of plasma lipoperoxidation ([6]; 100 mg/kg orally): 15.4%
Cc1cc(C)c(NC(=O)N(Cc2ccc3c(c2)Cc2ccccc2-3)C2CCCCCC2)c(C)c1 [YM-750, 1-cycloheptyl-1-[(2-fluorenyl)methyl]-3-(2,4,6-trimethyl-phenyl) urea, reference compound]		37.7	46.4	92.0	solubility at 1 h [7]: < 10 µg/mL
